Source: US12138256B2, “Treatment of cardiopulmonary disorders” (Bayer Aktiengesellschaft, priority 2021, dated 2024)

Test system: sGC (cGMP)
Experiment: Phase I, healthy male subjects, 14 days inhalation: cGMP concentration (C-4.2)
Assay type: in vivo, human
Conditions: for cGMP change from baseline / cGMP concentration, mean +/− SD: 1000 μg
Procedure: Healthy white male subjects, aged 18 to 45 years and with a body mass index (BMI) above/equal 18.5 and below/equal 29.9 kg/m2 were treated in a clinical pharmacological phase I study for 14 days with inhaled once daily doses of 1000 μg (nominal dose) or Placebo of dry powder of example 4. The subjects inhaled the drug powder from capsules (see under D-1, e.g. tables 17 and 20) inserted into a handheld inhalation device by one deep inhalative breath into the deep parts of the lung. The intended substantial reduction of increased blood pressure in the central pulmonary blood vessels cannot be evaluated in subjects without pathophysiological impairment of lung function. As surrogate for drug concentration in the lung, plasma concentrations over time have been analysed. […] Drug activity/target engagement in healthy men was controlled in the healthy subjects by analysing blood samples for cGMP. Results are shown in as mean in table C4.2.1 and change to baseline in FIG. 76 and table C4.2.2.

[1] = −0 D 09 H 00 M (pretreatment day)
[2] = −0 D 12 H 00 M (pretreatment day)
[3] = −0 D 16 H 00 M (pretreatment day)
[4] = −0 D 18 H 00 M (pretreatment day)
[5] = −0 D 20 H 00 M (pretreatment day)
[6] = −0 D 22 H 00 M (pretreatment day)

O=C(O)c1ccc(CCN(CCc2ccccc2OCc2ccc(-c3ccc(C(F)(F)F)cc3)cc2Cl)[C@H]2CCCc3nc(C(=O)O)ccc32)cc1 [example 4, (5S)-{[2-(4-Carboxyphenyl)ethyl][2-(2-{[3-chloro-4′-(trifluoromethyl)biphenyl-4-yl]methoxy}phenyl)-ethyl]amino}-5,6,7,8-tetrahydroquinoline-2-carboxylic acid]
time until maximum cGMP values were reached (1000 μg once daily): 7 days
time until steady state of cGMP concentration (1000 μg once daily): ≤ 11 days
cGMP change from baseline (0 D 02 H 00 M): 4840 pM
cGMP concentration, mean +/− SD (0 D 02 H 00 M): 9170 pM
cGMP change from baseline (0 D 04 H 00 M): 7290 pM
cGMP concentration, mean +/− SD (0 D 04 H 00 M): 11600 pM
cGMP change from baseline (0 D 06 H 00 M): 9950 pM
cGMP concentration, mean +/− SD (0 D 06 H 00 M): 14300 pM
cGMP change from baseline (0 D 08 H 00 M): 10600 pM
cGMP concentration, mean +/− SD (0 D 08 H 00 M): 14900 pM
cGMP change from baseline (0 D 12 H 00 M): 7530 pM
cGMP concentration, mean +/− SD (0 D 12 H 00 M): 11800 pM
cGMP change from baseline (0 D 15 H 00 M): 6740 pM
cGMP concentration, mean +/− SD (0 D 15 H 00 M): 11100 pM
cGMP change from baseline (1 D 00 H 00 M): 2980 pM
cGMP concentration, mean +/− SD (1 D 00 H 00 M): 7310 pM
cGMP change from baseline (2 D 00 H 00 M): 4550 pM
cGMP concentration, mean +/− SD (2 D 00 H 00 M): 8880 pM
cGMP change from baseline (2 D 03 H 00 M): 13000 pM
cGMP concentration, mean +/− SD (2 D 03 H 00 M): 17300 pM
cGMP change from baseline (2 D 08 H 00 M): 16400 pM
cGMP concentration, mean +/− SD (2 D 08 H 00 M): 20800 pM
cGMP change from baseline (2 D 12 H 00 M): 12600 pM
cGMP concentration, mean +/− SD (2 D 12 H 00 M): 16900 pM
cGMP change from baseline (3 D 00 H 00 M): 5160 pM
cGMP concentration, mean +/− SD (3 D 00 H 00 M): 9490 pM
cGMP change from baseline (4 D 00 H 00 M): 6360 pM
cGMP concentration, mean +/− SD (4 D 00 H 00 M): 10700 pM
cGMP change from baseline (5 D 00 H 00 M): 5920 pM
cGMP concentration, mean +/− SD (5 D 00 H 00 M): 10300 pM
cGMP change from baseline (6 D 00 H 00 M): 5090 pM
cGMP concentration, mean +/− SD (6 D 00 H 00 M): 9420 pM
cGMP change from baseline (6 D 03 H 00 M): 13400 pM
cGMP concentration, mean +/− SD (6 D 03 H 00 M): 17700 pM
cGMP change from baseline (6 D 08 H 00 M): 20100 pM
cGMP concentration, mean +/− SD (6 D 08 H 00 M): 24500 pM
cGMP change from baseline (6 D 12 H 00 M): 13900 pM
cGMP concentration, mean +/− SD (6 D 12 H 00 M): 18200 pM
cGMP change from baseline (7 D 00 H 00 M): 6180 pM
cGMP concentration, mean +/− SD (7 D 00 H 00 M): 10500 pM
cGMP change from baseline (8 D 00 H 00 M): 6200 pM
cGMP concentration, mean +/− SD (8 D 00 H 00 M): 10500 pM
cGMP change from baseline (9 D 00 H 00 M): 6580 pM
cGMP concentration, mean +/− SD (9 D 00 H 00 M): 10900 pM
cGMP change from baseline (10 D 00 H 00 M): 6450 pM
cGMP concentration, mean +/− SD (10 D 00 H 00 M): 10800 pM
cGMP change from baseline (10 D 03 H 00 M): 12700 pM
cGMP concentration, mean +/− SD (10 D 03 H 00 M): 17100 pM
cGMP change from baseline (10 D 08 H 00 M): 17500 pM
cGMP concentration, mean +/− SD (10 D 08 H 00 M): 21900 pM
cGMP change from baseline (10 D 12 H 00 M): 13000 pM
cGMP concentration, mean +/− SD (10 D 12 H 00 M): 17300 pM
cGMP change from baseline (11 D 00 H 00 M): 6940 pM
cGMP concentration, mean +/− SD (11 D 00 H 00 M): 11300 pM
cGMP change from baseline (12 D 00 H 00 M): 8060 pM
cGMP concentration, mean +/− SD (12 D 00 H 00 M): 12400 pM
cGMP change from baseline (12 D 22 H 00 M): 6950 pM
cGMP concentration, mean +/− SD (12 D 22 H 00 M): 11300 pM
cGMP change from baseline (13 D 02 H 00 M): 9120 pM
cGMP concentration, mean +/− SD (13 D 02 H 00 M): 13400 pM
cGMP change from baseline (13 D 04 H 00 M): 12900 pM
cGMP concentration, mean +/− SD (13 D 04 H 00 M): 17300 pM
cGMP change from baseline (13 D 06 H 00 M): 17000 pM
cGMP concentration, mean +/− SD (13 D 06 H 00 M): 21400 pM
cGMP change from baseline (13 D 08 H 00 M): 17700 pM
cGMP concentration, mean +/− SD (13 D 08 H 00 M): 22000 pM
cGMP change from baseline (13 D 12 H 00 M): 12900 pM
cGMP concentration, mean +/− SD (13 D 12 H 00 M): 17200 pM
cGMP change from baseline (13 D 15 H 00 M): 12100 pM
cGMP concentration, mean +/− SD (13 D 15 H 00 M): 16400 pM
cGMP change from baseline (14 D 00 H 00 M): 5410 pM
cGMP concentration, mean +/− SD (14 D 00 H 00 M): 9740 pM
cGMP change from baseline (15 D 00 H 00 M): 2520 pM
cGMP concentration, mean +/− SD (15 D 00 H 00 M): 6850 pM
cGMP change from baseline (15 D 12 H 00 M): 3040 pM
cGMP concentration, mean +/− SD (15 D 12 H 00 M): 7370 pM
cGMP change from baseline (16 D 00 H 00 M): 2000 pM
cGMP concentration, mean +/− SD (16 D 00 H 00 M): 6330 pM
cGMP change from baseline (16 D 12 H 00 M): 2410 pM
cGMP concentration, mean +/− SD (16 D 12 H 00 M): 6740 pM
cGMP change from baseline (17 D 00 H 00 M): 400 pM
cGMP concentration, mean +/− SD (17 D 00 H 00 M): 4730 pM
cGMP change from baseline (20 D 00 H 00 M): 1220 pM
cGMP concentration, mean +/− SD (20 D 00 H 00 M): 5520 pM
cGMP change from baseline (FOLLOW-UP): 1520 pM
cGMP concentration, mean +/− SD (FOLLOW-UP): 5850 pM
cGMP concentration, mean +/− SD (−0 D 02 H 00 M (prior to first inhalation)): 4330 pM
cGMP change from baseline [1]: 224 pM
cGMP concentration, mean +/− SD [1]: 5490 pM
cGMP change from baseline [2]: 306 pM
cGMP concentration, mean +/− SD [2]: 5570 pM
cGMP change from baseline [3]: 676 pM
cGMP concentration, mean +/− SD [3]: 5940 pM
cGMP change from baseline [4]: −252.9 +/− 1345.9
cGMP concentration, mean +/− SD [4]: 5010 pM
cGMP change from baseline [5]: −952.9 +/− 1984.7
cGMP concentration, mean +/− SD [5]: 4310 pM
cGMP change from baseline [6]: −100.0 +/− 1403.1
cGMP concentration, mean +/− SD [6]: 5160 pM
cGMP concentration, mean +/− SD (−1 D 02 H 00 M (pretreatment day)): 5260 pM
